Laboratory results from US20190202836A1, “SELECTIVE DUAL INHIBITORS OF PI3 DELTA AND GAMMA PROTEIN KINASES” (Rhizen Pharmaceuticals SA, priority 2014, published 2019).
pEC50, pIC50: −log10 of the molar value.

Experiments:
[1] = Plasma protein binding (equilibrium dialysis), human; assay type: in vitro ADME; conditions: pH 7.4, 37° C.
Procedure: (§1) Below is provided the procedure for measuring plasma protein binding (using an equilibrium dialysis method). 745 μL of plasma was transferred into a 2 ml micro centrifuge tube. To that 5 μL of Compound A1 (150 μM) was added. Samples were mixed in the table top vortexer for 2 minutes. 50 μL plasma (n=2) was transferred in a pre-labeled 1.5 mL micro centrifuge tube treated as 0 hour sample.
(§2) The remaining 650 μL plasma sample were incubated for 30 minutes at 37° C. in a water bath. After 30 minute incubation, 50 μL plasma (n=2) was removed in a pre-labelled 1.5 mL micro centrifuge tube treated as 0.5 hour sample. 200 μL of the plasma sample (n=2) was transferred into the sample chamber which was indicated by the red ring. The red insert was placed into the base plate and 350 μL of buffer was transferred into the buffer chamber. Plates were incubated at 37° C. at approximately 100 RPM on an orbital shaker or 20 RPM on an up-and-down shaker for 4 hours. 50 μL of post dialysis-sample from the buffer and the plasma chambers were transferred into a pre-labelled micro centrifuged tube. 50 μL of plasma was added to the buffer samples and an equal volume of buffer (KH2PO4 Buffer pH 7.4) to the collected plasma samples. 150 μL of methanol containing internal standard (Tolbutamide 250 ng/ml) was added to precipitate the protein and release compound. […]

[2] = Metabolic stability in monkey liver microsomes; assay type: in vitro ADME
Procedure: Metabolic stability studies were conducted on Compounds A, A1, and A2 as well as Example 128 of WO 2012/151525 using mouse, rat, dog, monkey, and human liver microsomes. The protocol for the studies with mouse, rat, and human liver microsomes (all from BD Gentest, USA) is provided below. 0.4 mg protein was preincubated with 2 mM NADPH (cofactor) in phosphate buffer (pH-7.4) for 15 minutes at 37° C. and then added with 1 μM test item and incubated further for 60 minutes in triplicate. The reaction mixture was terminated with methanol containing an internal standard and centrifuged further to analyze the test item remaining in the supernatant by LC-MS/MS. The percent parent compound remaining was calculated in comparison with similar samples terminated at 0 minutes.

TNFα = assay: Assay 6A: Cytokine assay in human PBMC, LPS induced TNFα; assay type: cell-based; conditions: LPS 1 μg/ml, 6 hours, 2-3 independent experiments, read-out: EC50, antigen-induced TNFα
Procedure: The objective of this study was to assess the inhibitory potential of Compound A1 on antigen-induced cytokine release in human PBMC
• Heparinized human whole blood was diluted 1:1 with PBS, over laid on leukocyte separation medium and centrifuged at 400 g for 40 minutes. • Buffy layer was removed and washed with PBS • 0.15*10^6 of PBMCs were plated in 100 μl per well in RPMI media and incubated for 2 h. • 50 μl of 3× of the compound dilution in media was added and incubated for 15 min. • TNFα—induced with 50 μl of LPS in RPMI such that final concentration was 1 μg/ml. Supernatant was collected at 6 hours. • IL-2-induced with 50 μl of PHA in RPMI such that final concentration was 20 μg/ml. Supernatant was collected at 24 hours. • IL-4-induced with 50 μl of PHA in RPMI such that final concentration was 20 μg/ml.
EC50 values were calculated from 2-3 independent experiments.

[3] = Plasma protein binding (equilibrium dialysis), dog; assay type: in vitro ADME; conditions: pH 7.4, 37° C.
Procedure: as §1, §2

[4] = Plasma protein binding (equilibrium dialysis), rat; assay type: in vitro ADME; conditions: pH 7.4, 37° C.
Procedure: as §1, §2

[5] = Plasma protein binding (equilibrium dialysis), monkey; assay type: in vitro ADME; conditions: pH 7.4, 37° C.
Procedure: as §1, §2

PI3Kα = PI3Kα (Homo sapiens, UniProt P42336); assay: Assay 1: Fluorescent (HTRF) determination of PI3 kinase enzyme activity, PI3Kα; assay type: biochemical
Description: (§3) Phosphoinositide 3 kinases (PI3K) belong to a class of lipid kinases that play a critical role in the regulation of several key cellular processes. The PI3K are capable of phosphorylating the 3-hydroxy position of phosphoinositols thereby generating second messengers involved in downstream signaling events. The homogenous time resolved fluorescence (HTRF) assay allows detection of 3,4,5-triphosphate (PIPS) formed as a result of phosphorylation of phosphotidylinositol 4,5-biphosphate (PIP2) by PI3K isoforms such as α, β, γ or δ.
(§4) PI3K isoform activity for α, β, γ or δ was determined using a PI3K human HTRF™ Assay Kit (Millipore, Billerica, Mass.) with modifications. All incubations were carried out at room temperature. 0.5 μl of 40× inhibitor (in 100% DMSO) or 100% DMSO were added to each well of a 384-well white plate (Greiner Bio-One, Monroe, N.C.) containing 14.5 μl 1× reaction buffer/PIP2 (10 mM MgCl2, 5 mM DTT, 1.38 μM PIP2) mix with or without enzyme, followed by 5 μl/well of 400 μM ATP and incubated for an additional 30 minutes. The reaction was terminated by adding 5 μl/well stop solution (Millipore, Billerica, Mass.). 5 μl of detection mix (Millipore, Billerica, Mass.) was then added to each well and incubated for 6-18 hours in the dark. HRTF ratio was measured on a microplate reader (BMG Labtech., Germany) at an excitation wavelength of 337 nm and emission wavelengths of 665 and 615 nm with an integration time of 400 msec counting delay of 50 msec.

PI3Kγ = PI3Kγ (Homo sapiens, UniProt P48736); assay: Assay 1: Fluorescent (HTRF) determination of PI3 kinase enzyme activity, PI3Kγ; assay type: biochemical; conditions: read-out: IC50 (nM) PI3Kγ
Description: as §3, §4

PI3K gamma = molecular target: T1, PI3K gamma (Mus musculus, UniProt Q9JHG7); assay: Assay 4A3: c5a induced AktS473 phosphorylation in RAW 264.7 macrophages; assay type: cell-based; conditions: c5a 50 ng/ml, read-out: Cellular IC50 PI3K gamma (c5a induced pAKT in RAW macrophages)
T1 construct: endogenous in cells; host or cells: RAW 264.7 macrophages
Procedure: The objective of this study was to determine the effect of Compound A1 on PI3Kγ kinase mediated c5a induced AktS473 phosphorylation in RAW 264.7 macrophages.
RAW 264.7 cells were treated with desired concentrations of the test compound for 15 minutes. 1 ml of 2× c5a was added such that the final concentration was 50 ng/ml and incubated for 15 minutes.
Media was discarded and washed with 1 ml of ice-cold 1× PBS.
250 μl of cell lysis buffer was added and incubated on ice for 30 minutes.
Samples were centrifuged and supernatant was stored at −80° C. until analysis
Samples were analyzed by Western Blotting using pAKT (S473) as the primary and anti-rabbit IgG-HRP as a secondary antibody.
Intensity of the bands was determined using ImageJ 1.42q (NIH, USA) and normalized to Actin (loading control). Data was plotted using GraphPad Prism (Version 5.02).

PI3Kδ = PI3Kδ (Homo sapiens, UniProt O00329); assay: Assay 1: Fluorescent (HTRF) determination of PI3 kinase enzyme activity, PI3Kδ; assay type: biochemical
Description: as §3, §4

Chain of PI3Kα (P42336 whole entry, canonical isoform): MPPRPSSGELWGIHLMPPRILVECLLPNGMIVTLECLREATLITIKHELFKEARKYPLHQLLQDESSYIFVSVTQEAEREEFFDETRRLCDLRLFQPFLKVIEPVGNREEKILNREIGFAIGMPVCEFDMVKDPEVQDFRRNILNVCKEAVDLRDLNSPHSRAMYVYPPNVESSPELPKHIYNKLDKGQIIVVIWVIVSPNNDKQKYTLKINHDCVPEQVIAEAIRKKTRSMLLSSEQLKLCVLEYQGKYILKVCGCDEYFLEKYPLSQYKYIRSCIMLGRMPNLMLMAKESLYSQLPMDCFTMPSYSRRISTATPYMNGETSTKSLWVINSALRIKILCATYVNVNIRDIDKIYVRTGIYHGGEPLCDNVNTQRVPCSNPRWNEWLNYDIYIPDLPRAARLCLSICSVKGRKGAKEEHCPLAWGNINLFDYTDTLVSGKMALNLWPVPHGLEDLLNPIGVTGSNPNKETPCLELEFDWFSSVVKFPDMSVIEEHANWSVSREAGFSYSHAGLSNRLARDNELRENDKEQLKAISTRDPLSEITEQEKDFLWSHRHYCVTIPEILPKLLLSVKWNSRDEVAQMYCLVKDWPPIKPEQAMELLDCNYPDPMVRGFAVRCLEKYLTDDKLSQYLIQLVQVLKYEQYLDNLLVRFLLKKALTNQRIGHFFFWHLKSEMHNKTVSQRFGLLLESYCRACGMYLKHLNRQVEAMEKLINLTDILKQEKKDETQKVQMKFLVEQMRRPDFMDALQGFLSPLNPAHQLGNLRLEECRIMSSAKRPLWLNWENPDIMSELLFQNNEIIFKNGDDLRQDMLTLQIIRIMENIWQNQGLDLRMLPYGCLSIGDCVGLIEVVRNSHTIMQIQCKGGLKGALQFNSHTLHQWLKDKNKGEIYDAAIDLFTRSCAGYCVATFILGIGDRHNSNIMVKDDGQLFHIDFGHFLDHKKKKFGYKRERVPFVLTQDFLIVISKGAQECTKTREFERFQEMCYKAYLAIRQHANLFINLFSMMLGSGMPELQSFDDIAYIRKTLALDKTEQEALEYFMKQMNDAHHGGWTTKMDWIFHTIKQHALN
Chain of PI3Kα (P27986 whole entry partner, canonical isoform): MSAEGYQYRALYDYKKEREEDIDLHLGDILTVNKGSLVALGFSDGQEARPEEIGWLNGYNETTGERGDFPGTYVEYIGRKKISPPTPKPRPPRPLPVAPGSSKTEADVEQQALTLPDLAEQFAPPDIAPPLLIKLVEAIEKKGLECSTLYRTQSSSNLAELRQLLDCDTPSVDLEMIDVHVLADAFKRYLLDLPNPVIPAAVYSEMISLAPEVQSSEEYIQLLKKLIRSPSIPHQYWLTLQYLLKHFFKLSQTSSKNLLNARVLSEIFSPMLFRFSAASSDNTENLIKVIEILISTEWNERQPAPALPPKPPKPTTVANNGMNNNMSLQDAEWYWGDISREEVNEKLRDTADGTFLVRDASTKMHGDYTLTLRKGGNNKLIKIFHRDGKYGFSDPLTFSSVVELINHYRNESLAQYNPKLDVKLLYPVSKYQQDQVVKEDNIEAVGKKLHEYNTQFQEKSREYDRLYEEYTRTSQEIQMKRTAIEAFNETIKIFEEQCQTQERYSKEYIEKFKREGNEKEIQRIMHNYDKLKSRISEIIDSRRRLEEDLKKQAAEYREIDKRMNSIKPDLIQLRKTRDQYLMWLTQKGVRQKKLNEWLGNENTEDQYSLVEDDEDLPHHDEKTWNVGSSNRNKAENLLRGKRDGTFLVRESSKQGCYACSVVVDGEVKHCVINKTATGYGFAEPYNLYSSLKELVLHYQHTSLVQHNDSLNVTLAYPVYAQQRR
Chain of PI3Kδ (O00329 whole entry): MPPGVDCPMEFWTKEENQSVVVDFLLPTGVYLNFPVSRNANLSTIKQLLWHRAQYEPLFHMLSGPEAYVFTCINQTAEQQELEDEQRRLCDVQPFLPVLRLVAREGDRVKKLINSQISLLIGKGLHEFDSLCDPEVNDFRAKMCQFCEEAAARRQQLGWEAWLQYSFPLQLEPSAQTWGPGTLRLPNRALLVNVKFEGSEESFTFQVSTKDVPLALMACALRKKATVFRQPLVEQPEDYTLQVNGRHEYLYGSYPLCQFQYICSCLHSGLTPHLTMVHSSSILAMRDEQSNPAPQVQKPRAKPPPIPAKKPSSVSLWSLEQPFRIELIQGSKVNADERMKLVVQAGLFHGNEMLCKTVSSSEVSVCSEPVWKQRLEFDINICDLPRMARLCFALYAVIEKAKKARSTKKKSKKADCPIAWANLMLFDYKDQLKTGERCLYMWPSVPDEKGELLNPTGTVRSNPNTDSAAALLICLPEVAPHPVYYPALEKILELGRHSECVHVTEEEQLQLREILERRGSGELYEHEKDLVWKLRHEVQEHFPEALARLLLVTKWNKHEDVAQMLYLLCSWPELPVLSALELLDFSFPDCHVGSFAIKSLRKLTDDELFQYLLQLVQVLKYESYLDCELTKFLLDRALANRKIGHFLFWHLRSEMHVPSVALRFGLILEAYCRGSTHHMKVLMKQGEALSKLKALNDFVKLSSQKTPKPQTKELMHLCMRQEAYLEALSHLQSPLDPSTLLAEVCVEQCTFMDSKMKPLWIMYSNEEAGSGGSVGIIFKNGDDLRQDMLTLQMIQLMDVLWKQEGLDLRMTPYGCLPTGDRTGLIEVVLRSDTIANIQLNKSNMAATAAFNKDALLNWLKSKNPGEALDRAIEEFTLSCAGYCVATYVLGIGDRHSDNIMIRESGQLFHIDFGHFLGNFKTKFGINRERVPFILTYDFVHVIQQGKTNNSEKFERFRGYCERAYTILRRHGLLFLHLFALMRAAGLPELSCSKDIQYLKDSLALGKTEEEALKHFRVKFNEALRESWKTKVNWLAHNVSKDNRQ
Chain of PI3Kδ (P27986 whole entry partner): as the sequence (P27986 whole entry partner, canonical isoform) above
Chain of PI3Kγ (P48736 whole entry): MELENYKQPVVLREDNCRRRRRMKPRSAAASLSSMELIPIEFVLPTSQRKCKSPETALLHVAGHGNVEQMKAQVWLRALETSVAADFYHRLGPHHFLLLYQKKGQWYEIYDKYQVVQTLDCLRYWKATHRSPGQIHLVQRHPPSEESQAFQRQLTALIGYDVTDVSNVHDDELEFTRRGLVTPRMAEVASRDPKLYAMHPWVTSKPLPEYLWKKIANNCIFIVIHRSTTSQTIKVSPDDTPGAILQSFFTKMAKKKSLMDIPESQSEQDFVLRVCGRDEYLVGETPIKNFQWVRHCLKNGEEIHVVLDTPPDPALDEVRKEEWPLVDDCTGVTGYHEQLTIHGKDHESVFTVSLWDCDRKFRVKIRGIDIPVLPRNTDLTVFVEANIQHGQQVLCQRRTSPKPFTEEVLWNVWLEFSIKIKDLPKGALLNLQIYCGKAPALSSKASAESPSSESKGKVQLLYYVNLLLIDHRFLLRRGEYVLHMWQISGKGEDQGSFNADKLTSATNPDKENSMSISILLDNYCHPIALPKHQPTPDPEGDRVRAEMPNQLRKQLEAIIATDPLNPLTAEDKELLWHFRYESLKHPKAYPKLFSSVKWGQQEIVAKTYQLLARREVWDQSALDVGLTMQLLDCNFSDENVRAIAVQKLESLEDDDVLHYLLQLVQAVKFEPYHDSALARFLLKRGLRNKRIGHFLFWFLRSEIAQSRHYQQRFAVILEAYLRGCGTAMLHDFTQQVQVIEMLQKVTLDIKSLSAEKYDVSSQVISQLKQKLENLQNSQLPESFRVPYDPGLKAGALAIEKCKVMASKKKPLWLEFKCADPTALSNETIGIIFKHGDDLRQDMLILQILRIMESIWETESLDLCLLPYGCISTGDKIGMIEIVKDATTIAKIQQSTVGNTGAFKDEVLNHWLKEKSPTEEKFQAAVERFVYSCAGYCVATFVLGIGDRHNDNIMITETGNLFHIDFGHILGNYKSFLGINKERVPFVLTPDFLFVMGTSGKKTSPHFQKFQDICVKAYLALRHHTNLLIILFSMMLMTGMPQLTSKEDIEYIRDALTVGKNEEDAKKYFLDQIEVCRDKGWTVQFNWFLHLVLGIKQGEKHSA
T1 sequence (Q9JHG7 whole entry): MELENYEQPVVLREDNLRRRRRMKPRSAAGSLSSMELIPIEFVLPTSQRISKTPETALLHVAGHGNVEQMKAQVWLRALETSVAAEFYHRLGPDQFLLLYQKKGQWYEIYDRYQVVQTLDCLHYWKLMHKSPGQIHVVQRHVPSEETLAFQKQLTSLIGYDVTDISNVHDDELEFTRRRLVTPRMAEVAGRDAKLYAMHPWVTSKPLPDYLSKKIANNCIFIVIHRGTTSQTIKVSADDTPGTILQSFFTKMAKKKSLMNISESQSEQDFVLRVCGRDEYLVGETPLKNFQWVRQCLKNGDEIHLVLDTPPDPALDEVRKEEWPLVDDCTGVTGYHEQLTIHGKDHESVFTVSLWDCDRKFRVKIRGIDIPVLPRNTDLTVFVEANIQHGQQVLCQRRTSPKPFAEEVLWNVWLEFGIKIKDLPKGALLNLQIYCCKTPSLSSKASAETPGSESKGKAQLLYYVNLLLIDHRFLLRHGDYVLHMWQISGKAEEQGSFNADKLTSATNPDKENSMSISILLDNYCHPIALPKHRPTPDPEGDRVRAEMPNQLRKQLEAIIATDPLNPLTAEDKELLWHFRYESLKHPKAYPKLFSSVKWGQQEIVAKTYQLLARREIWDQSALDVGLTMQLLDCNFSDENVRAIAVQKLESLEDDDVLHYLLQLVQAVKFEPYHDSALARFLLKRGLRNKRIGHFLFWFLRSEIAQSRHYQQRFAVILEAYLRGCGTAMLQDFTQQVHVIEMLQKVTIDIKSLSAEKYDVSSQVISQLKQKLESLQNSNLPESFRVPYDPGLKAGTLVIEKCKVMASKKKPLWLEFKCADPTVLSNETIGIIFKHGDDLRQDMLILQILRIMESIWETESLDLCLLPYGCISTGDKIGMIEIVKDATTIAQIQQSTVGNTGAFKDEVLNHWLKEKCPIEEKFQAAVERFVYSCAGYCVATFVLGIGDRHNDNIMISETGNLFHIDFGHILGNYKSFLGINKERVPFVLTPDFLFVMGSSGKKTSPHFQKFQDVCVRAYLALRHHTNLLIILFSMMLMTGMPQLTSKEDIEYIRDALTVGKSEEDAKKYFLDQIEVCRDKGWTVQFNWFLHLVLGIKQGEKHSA

fraction unbound at 4 h, 1 μM [1]: 0.0276
Metabolic stability in liver microsomes (percent parent compound remaining), Monkey [2]: 78.8%
pEC50 (TNFα): 8.15
fraction unbound at 4 h, 1 μM [3]: 0.0415
fraction unbound at 4 h, 1 μM [4]: 0.0096
fraction unbound at 4 h, 1 μM [5]: 0.0529
inhibition at 10 µM (PI3Kα): 23%
IC50 (PI3Kα; HTRF enzyme assay): > 10000 nM
Fold-Selectivity PI3Kα (PI3Kα; selectivity profile, enzyme IC50): >329 fold
IC50 (PI3Kγ): 48.7 nM
pIC50 (PI3K gamma): 7.29
IC50 (PI3Kδ): 30.5 nM
SMILES: COc1ccc(-c2nn([C@@H](C)c3oc4cccc(F)c4c(=O)c3-c3cccc(F)c3)c3ncnc(N)c23)cc1NS(C)(=O)=O [Compound A1, (S)—N-(5-(4-amino-1-(1-(5-fluoro-3-(3-fluorophenyl)-4-oxo-4H-chromen-2-yl)ethyl)-1H-pyrazolo[3,4-d]pyrimidin-3-yl)-2-methoxyphenyl)methanesulfonamide]
